Several values for one entry are separate records, joined by “and”; a condition that tells them apart may be missing. Equal values may be shown once. Inconclusive results are not listed.
System: BDF1 mice, B16 melanoma s.c., survival/tumor T/C
Assay: NCI In Vivo Anticancer Drug Screen. Data for tumor model B16 Melanoma (subcutaneous) in B6D2F1 (BDF1) mice
Conditions: endpoint: median survival time, higher = longer survival
Description: The antitumor activity of compounds was measured in mice bearing transplantable tumors. Survival or tumor size were measured and the results are expressed as the measurement made in the treated group (T) divided by the measurement made in the vehicle treated control group (C). The tumor model used in this assay is B16 Melanoma (subcutaneous) in B6D2F1 (BDF1) mice

[1] = dose: 1.0 mg/kg/injection, schedule: Q01DX009 (ip), vehicle: saline
[2] = dose: 4.0 mg/kg/injection, schedule: Q01DX009 (ip), vehicle: saline
[3] = dose: 8.0 mg/kg/injection, schedule: Q01DX009 (ip), vehicle: saline
[4] = dose: 16.0 mg/kg/injection, schedule: Q01DX009 (ip), vehicle: saline

Compound: COc1cccc2c1C(=O)c1c(O)c3c(c(O)c1C2=O)CC(O)(C(=O)CO)CC3OC1CC(N)C(O)C(C)O1 (stereo not drawn)
- T/C (dose: 2.9 mg/kg/injection, schedule: Q01DX009 (ip), vehicle: saline): 103 % of control
- T/C (dose: 5.8 mg/kg/injection, schedule: Q01DX009 (ip), vehicle: saline): 107 % of control

Compound: NC(CS/C(Cl)=C/Cl)C(=O)O (stereo not drawn)
- T/C (dose: 1.25 mg/kg/injection, schedule: Q01DX009 (ip), vehicle: saline): 102 % of control
- T/C (dose: 2.5 mg/kg/injection, schedule: Q01DX009 (ip), vehicle: saline): 95 % of control
- T/C (dose: 5.0 mg/kg/injection, schedule: Q01DX009 (ip), vehicle: saline): 97 % of control and 106 % of control
- T/C (dose: 18.0 mg/kg/injection, schedule: Q01DX009 (ip), vehicle: saline): 101 % of control

Compound: CC(CN1CC(=O)NC(=O)C1)N1CC(=O)NC(=O)C1 (stereo not drawn)
- T/C (dose: 6.25 mg/kg/injection, schedule: Q04DX003 (ip), vehicle: saline): 97 % of control
- T/C (dose: 8.0 mg/kg/injection, schedule: Q01DX009 (ip), vehicle: Klucel (hydroxypropylcellulose) (HPC)): 113 % of control
- T/C (dose: 12.5 mg/kg/injection, schedule: Q04DX003 (ip), vehicle: saline): 97 % of control
- T/C (dose: 15.0 mg/kg/injection, schedule: Q01DX009 (ip), vehicle: saline): 122 % of control
- T/C (dose: 16.0 mg/kg/injection, schedule: Q01DX009 (ip), vehicle: Klucel (hydroxypropylcellulose) (HPC)): 118 % of control
- T/C (dose: 25.0 mg/kg/injection, schedule: Q04DX003 (ip), vehicle: saline): 102 % of control
- T/C (dose: 30.0 mg/kg/injection, schedule: Q01DX009 (ip), vehicle: saline): 95 % of control
- T/C (dose: 50.0 mg/kg/injection, schedule: Q04DX003 (ip), vehicle: saline): 111 % of control
- T/C (dose: 60.0 mg/kg/injection, schedule: Q01DX009 (ip), vehicle: saline): 110 % of control
- T/C (dose: 64.0 mg/kg/injection, schedule: Q01DX009 (ip), vehicle: Klucel (hydroxypropylcellulose) (HPC)): 119 % of control
- T/C (dose: 120.0 mg/kg/injection, schedule: Q01DX009 (ip), vehicle: saline): 109 % of control
- T/C (dose: 200.0 mg/kg/injection, schedule: Q04DX003 (ip), vehicle: saline): 105 % of control
- T/C (dose: 400.0 mg/kg/injection, schedule: Q04DX003 (ip), vehicle: saline): 120 % of control

Compound: COC(=O)C[C@](O)(CCC(C)(C)O)C(=O)O[C@@H]1C(OC)=C[C@]23CCCN2CCc2cc4c(cc2[C@H]13)OCO4
- T/C (dose: 0.7 mg/kg/injection, schedule: Q01DX009 (ip), vehicle: saline): 101 % of control
- T/C [1]: 87 % of control
- T/C (dose: 1.5 mg/kg/injection, schedule: Q01DX009 (ip), vehicle: saline): 91 % of control
- T/C (dose: 2.3 mg/kg/injection, schedule: Q01DX009 (ip), vehicle: saline): 105 % of control

Compound: COC(=O)Nc1nc2ccc(C(=O)c3cccs3)cc2[nH]1
- T/C (dose: 50.0 mg/kg/injection, schedule: Q04DX002 (iv), vehicle: other): 110 % of control
- T/C (dose: 50.0 mg/kg/injection, schedule: Q05DX005 (ip), vehicle: other): 104 % of control
- T/C (dose: 60.0 mg/kg/injection, schedule: Q05DX005 (ip), vehicle: other): 105 % of control
- T/C (dose: 70.0 mg/kg/injection, schedule: Q05DX005 (ip), vehicle: other): 103 % of control

Compound: COC1C(C)OC(OC2CC(C)(O)Cc3cc4c(c(O)c32)C(=O)c2c(O)cc3c(c2C4=O)OC2OC3(C)C(O)C(N(C)C)C2O)C(OC)C1(C)OC (stereo not drawn)
- T/C (dose: 2.5 mg/kg/injection, schedule: Q01DX009 (ip), vehicle: other): 90 % of control
- T/C (dose: 625.0 micrograms/kg/injection, schedule: Q01DX009 (ip), vehicle: other): 113 % of control
- T/C (dose: 1250.0 micrograms/kg/injection, schedule: Q01DX009 (ip), vehicle: other): 95 % of control
- T/C (dose: 2500.0 micrograms/kg/injection, schedule: Q01DX009 (ip), vehicle: other): 122 % of control
- T/C (dose: 5000.0 micrograms/kg/injection, schedule: Q01DX009 (ip), vehicle: other): 113 % of control

Compound: Cc1c(N)nc([C@H](CC(N)=O)NC[C@H](N)C(N)=O)nc1C(=O)N[C@H](C(=O)N[C@H](C)[C@@H](O)CC(=O)N[C@H](C(=O)NC(O[C@@H]1O[C@@H](C)[C@@H](N)[C@@H](O)[C@H]1O)C(O)c1nc(-c2nc(C(=O)NCCCCN)cs2)cs1)[C@@H](C)O)[C@@H](O[C@@H]1O[C@@H](CO)[C@@H](O)[C@H](O)[C@@H]1O[C@H]1O[C@H](CO)[C@@H](O)[C@H](OC(N)=O)[C@@H]1O)c1c[nH]cn1 (stereo partly drawn)
- T/C (dose: 0.12 mg/kg/injection, schedule: Q01DX009 (ip), vehicle: water): 109 % of control
- T/C (dose: 0.25 mg/kg/injection, schedule: Q01DX009 (ip), vehicle: water): 89 % of control
- T/C [1]: 180 % of control
- T/C (dose: 2.0 mg/kg/injection, schedule: Q01DX009 (ip), vehicle: saline): 180 % of control
- T/C (dose: 2.0 mg/kg/injection, schedule: Q01DX009 (ip), vehicle: water): 91 % of control
- T/C [2]: 180 % of control
- T/C [3]: 206 % of control
- T/C (dose: 12.0 mg/kg/injection, schedule: Q01DX009 (ip), vehicle: saline): 174 % of control
- T/C [4]: 180 % of control

Compound: COc1cc2c(c(OC)c1OC)-c1cc3c(cc1[C@@H](OC(C)=O)[C@@H]1COC(=O)[C@H]1C2)OCO3
- T/C (dose: 0.62 mg/kg/injection, schedule: Q01DX009 (ip), vehicle: Klucel (hydroxypropylcellulose) (HPC)): 100 % of control
- T/C (dose: 1.25 mg/kg/injection, schedule: Q01DX009 (ip), vehicle: Klucel (hydroxypropylcellulose) (HPC)): 88 % of control and 89 % of control
- T/C (dose: 2.5 mg/kg/injection, schedule: Q01DX009 (ip), vehicle: Klucel (hydroxypropylcellulose) (HPC)): 97 % of control
- T/C (dose: 5.0 mg/kg/injection, schedule: Q01DX009 (ip), vehicle: Klucel (hydroxypropylcellulose) (HPC)): 105 % of control and 116 % of control
- T/C (dose: 10.0 mg/kg/injection, schedule: Q01DX009 (ip), vehicle: Klucel (hydroxypropylcellulose) (HPC)): 109 % of control

Compound: C[CH2][Ge]1([CH2]C)[CH2]CC2(CCN(CCCN(C)C)C2)C[CH2]1
- T/C (dose: 2.0 mg/kg/injection, schedule: Q02DX009 (ip), vehicle: saline): 96 % of control
- T/C [2]: 98 % of control
- T/C (dose: 4.0 mg/kg/injection, schedule: Q02DX009 (ip), vehicle: saline): 110 % of control
- T/C [3]: 101 % of control
- T/C (dose: 8.0 mg/kg/injection, schedule: Q02DX009 (ip), vehicle: saline): 102 % of control
- T/C [4]: 98 % of control
- T/C (dose: 16.0 mg/kg/injection, schedule: Q02DX009 (ip), vehicle: saline): 111 % of control
- T/C (dose: 32.0 mg/kg/injection, schedule: Q01DX009 (ip), vehicle: saline): 112 % of control
- T/C (dose: 32.0 mg/kg/injection, schedule: Q02DX009 (ip), vehicle: saline): 109 % of control
- T/C (dose: 64.0 mg/kg/injection, schedule: Q01DX009 (ip), vehicle: saline): 97 % of control

Compound: COC(=O)[C@@H]1c2cc3c(c(O)c2[C@@H](OC2OC(C)C(OC)C(C)(OC)C2OC)C[C@]1(C)O)C(=O)c1c(O)cc2c(c1C3=O)O[C@H]1O[C@]2(C)[C@H](O)[C@@H](N(C)C)[C@@H]1O (stereo partly drawn)
- T/C (dose: 0.5 mg/kg/injection, schedule: Q01DX009 (ip), vehicle: other): 90 % of control
- T/C (dose: 125.0 micrograms/kg/injection, schedule: Q01DX009 (ip), vehicle: saline + alcohol): 118 % of control
- T/C (dose: 500.0 micrograms/kg/injection, schedule: Q01DX009 (ip), vehicle: saline + alcohol): 118 % of control
- T/C (dose: 1000.0 micrograms/kg/injection, schedule: Q01DX009 (ip), vehicle: saline + alcohol): 109 % of control

Compound: Nc1nc(=S)c2[nH]cnc2[nH]1
- T/C (dose: 48.0 mg/kg/injection, schedule: Q01DX001 (ip), vehicle: alkali diluted with saline): 102 % of control

Compound: CN1c2c(nc(N)[nH]c2=O)NCC1CCNc1ccc(C(=O)NC(CCC(=O)O)C(=O)O)cc1 (stereo not drawn)
- T/C (dose: 600.0 mg/kg/injection, schedule: Q04DX003 (ip), vehicle: saline): 118 % of control and 123 % of control
- T/C (dose: 800.0 mg/kg/injection, schedule: Q01DX001 (ip), vehicle: saline): 108 % of control
- T/C (dose: 800.0 mg/kg/injection, schedule: Q04DX003 (ip), vehicle: saline): 113 % of control
- T/C (dose: 900.0 mg/kg/injection, schedule: Q04DX003 (ip), vehicle: saline): 159 % of control
- T/C (dose: 1200.0 mg/kg/injection, schedule: Q01DX001 (ip), vehicle: saline): 119 % of control and 121 % of control
- T/C (dose: 1800.0 mg/kg/injection, schedule: Q01DX001 (ip), vehicle: saline): 121 % of control
- T/C (dose: 2400.0 mg/kg/injection, schedule: Q01DX001 (ip), vehicle: saline): 121 % of control

Compound: Nc1nncs1
- T/C (dose: 59.0 mg/kg/injection, schedule: Q01DX009 (ip), vehicle: saline with Tween-80): 108 % of control
- T/C (dose: 1200.0 mg/kg/injection, schedule: Q04DX003 (ip), vehicle: saline with Tween-80): 121 % of control
- T/C (dose: 1800.0 mg/kg/injection, schedule: Q04DX003 (ip), vehicle: saline with Tween-80): 104 % of control
- T/C (dose: 2000.0 mg/kg/injection, schedule: Q01DX001 (ip), vehicle: saline with Tween-80): 108 % of control
- T/C (dose: 3000.0 mg/kg/injection, schedule: Q01DX001 (ip), vehicle: saline with Tween-80): 113 % of control

— PubChem BioAssay AID194 (DTP/NCI, 2004)
